In patent US20130143929A1, “FUNGICIDAL IMIDAZOLES” (EI DU PONT DE NEMOURS AND COMPANY, priority 2010, published 2013):
Marks after values point to notes of the source that are not given here.

How the values were obtained:
Type in all cases: in vivo
[1] = system: Botrytis cinerea (the causal agent of tomato Botrytis); test: Test C: tomato Botrytis, preventive spray on tomato seedlings, visual disease rating; details: tomato Botrytis, preventive spray on tomato seedlings
Summary of the method: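 Test suspension (acetone/water with 250 ppm Trem 014; 200 ppm equivalent to 800 g/ha) sprayed to run-off on tomato seedlings; B. cinerea spores inoculated next day. After 48 h saturated humidity at 20° C then 3 days at 24° C, disease rated visually as % control relative to untreated controls (0–100).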

[2] = system: Puccinia recondite f. sp. tritici (the causal agent of wheat leaf rust); test: Test A: wheat leaf rust, preventive spray on wheat seedlings, visual disease rating; details: wheat leaf rust, preventive spray on wheat seedlings
Summary of the method: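 Wheat seedlings were sprayed to run-off with compound suspended in acetone/water containing 250 ppm Trem 014 (200 ppm ≈ 800 g/ha; some at 40 ppm). Puccinia recondite spores were inoculated the next day. Plants were held 24 h saturated at 20° C, then 7 days at 20° C, and disease control was rated visually on a 0–100 scale against controls.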

[3] = system: Blumeria graminis f. sp. tritici (also known as Erysiphe graminis f. sp. tritici, the causal agent of wheat powdery mildew); test: Test D: wheat powdery mildew, preventive spray on wheat seedlings, visual disease rating; details: wheat powdery mildew, preventive spray on wheat seedlings
Summary of the method: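 Compound suspended in acetone/water (50/50) with 250 ppm Trem 014 and sprayed to run-off on wheat seedlings (200 ppm ≈ 800 g/ha), then inoculated next day with spore dust. Disease rated visually after 8 days at 20 °C as % control relative to untreated plants (0-100).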

[4] = system: Septoria tritici (the causal agent of wheat leaf blotch); test: Test B: wheat leaf blotch, preventive spray on wheat seedlings, visual disease rating; details: wheat leaf blotch, preventive spray on wheat seedlings
Summary of the method: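 Wheat seedlings sprayed to run-off with compound suspension (acetone/water with 250 ppm Trem 014; 200 ppm ≈ 800 g/ha, some at 40 ppm), inoculated next day with Septoria tritici spores. 48 h saturated humidity at 24 °C, then 19 days at 20 °C; visual rating, 100 = full control.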

[5] = asterisk: 40 ppm test suspension
[6] = no asterisk (standard test suspension concentration, not 40 ppm)

| Compound | Test C rating (100 = 100% disease control, 0 = no disease control relative to the controls) [1, 5] | Test A rating (100 = 100% disease control, 0 = no disease control relative to the controls) [2, 5] | Test D rating (100 = 100% disease control, 0 = no disease control relative to the controls) [3, 5] | Test B rating (100 = 100% disease control, 0 = no disease control relative to the controls) [4, 5] | Test C rating (100 = 100% disease control, 0 = no disease control relative to the controls) [1, 6] [%] | Test A rating (100 = 100% disease control, 0 = no disease control relative to the controls) [2, 6] [%] | Test D rating (100 = 100% disease control, 0 = no disease control relative to the controls) [3, 6] [%] | Test B rating (100 = 100% disease control, 0 = no disease control relative to the controls) [4, 6] [%] |
| --- | --- | --- | --- | --- | --- | --- | --- | --- |
| Cc1cccc(Br)c1-n1c(C)nc(Cl)c1C(O)c1ccc(F)cc1Cl (stereo not drawn) [compound 336] | 72* % | 97* % | 90* % | 89* % |  |  |  |  |
| Cc1cccc(Br)c1-n1c(C)nc(Br)c1C(O)c1ccc(F)cc1F (stereo not drawn) [compound 337] | 71* % | 86* % | 0* % | 86* % |  |  |  |  |
| Cc1cccc(Br)c1-n1c(C)nc(Cl)c1C(O)c1ccc(F)cc1F (stereo not drawn) [compound 338] | 70* % | 94* % | 56* % | 93* % |  |  |  |  |
| Cc1cccc(F)c1-n1c(C)nc(Cl)c1C(O)c1ccc(F)cc1F (stereo not drawn) [compound 339] | 86* % | 98* % | 76* % | 98* % |  |  |  |  |
| Cc1cccc(F)c1-n1c(C)nc(Cl)c1C(O)c1ccc(F)cc1Cl (stereo not drawn) [compound 340] | 96* % | 99* % | 89* % | 100* % |  |  |  |  |
| Cc1cccc(F)c1-n1c(C)nc(Br)c1C(O)c1ccc(F)cc1F (stereo not drawn) [compound 341] | 86* % | 94* % | 43* % | 100* % |  |  |  |  |
| Cc1cccc(F)c1-n1c(C)nc(Br)c1C(O)c1ccc(F)cc1Cl (stereo not drawn) [compound 342] | 98* % | 94* % | 64* % | 100* % |  |  |  |  |
| Cc1cccc(Cl)c1-n1c(C)nc(Br)c1C(O)c1ccc(F)cc1Cl (stereo not drawn) [compound 343] | 84* % | 96* % | 69* % | 100* % |  |  |  |  |
| Cc1cccc(Cl)c1-n1c(C)nc(Cl)c1C(O)c1ccc(F)cc1Cl (stereo not drawn) [compound 344] | 54* % | 99* % | 72* % | 95* % |  |  |  |  |
| COc1ccc(C(O)c2c(Cl)nc(C)n2-c2c(F)cc(F)cc2Cl)c(F)c1 (stereo not drawn) [compound 345] | 99* % | 100* % | 35* % | 100* % |  |  |  |  |
| COc1ccc(C(O)c2c(Br)nc(C)n2-c2c(F)cc(F)cc2Cl)c(F)c1 (stereo not drawn) [compound 347] | 82* % | 100* % | 69* % | 100* % |  |  |  |  |
| COc1ccc(C(O)c2c(Br)nc(C)n2-c2c(F)cc(F)cc2Br)c(F)c1 (stereo not drawn) [compound 348] | 98* % | 100* % | 90* % | 100* % |  |  |  |  |
| COc1ccc(C(O)c2c(Br)nc(C)n2-c2c(F)cc(F)cc2Cl)c(Cl)c1 (stereo not drawn) [compound 349] | 98* % | 100* % | 90* % | 100* % |  |  |  |  |
| COc1ccc(C(O)c2c(Cl)nc(C)n2-c2c(F)cc(F)cc2Cl)c(Cl)c1 (stereo not drawn) [compound 350] | 98* % | 100* % | 98* % | 100* % |  |  |  |  |
| COc1ccc(C(O)c2c(Br)nc(C)n2-c2c(F)cc(F)cc2Br)c(Cl)c1 (stereo not drawn) [compound 351] | 90* % | 100* % | 95* % | 100* % |  |  |  |  |
| COc1ccc(C(O)c2cnc(CCl)n2-c2c(F)cc(F)cc2Br)c(Cl)c1 (stereo not drawn) [compound 352] |  |  |  |  | 99 | 100 | 95 | 100 |
| Cc1nc(Br)c(C(O)c2c(F)cc(F)cc2F)n1-c1ccc(Cl)cc1 (stereo not drawn) [compound 353] |  |  |  |  | 28 | 9 | 0 | 44 |
| COc1ccc(C(O)c2c(Br)ncn2-c2ccc(F)cc2Cl)c(Cl)c1 (stereo not drawn) [compound 354] | 0* % | 94* % | 0* % | 18* % |  |  |  |  |
